The subject of one series is Escherichia coli. In words: In vitro antimicrobial activity against Escherichia coli. It counts as cell-based. As to conditions: for MIC: read-out: E. coli MIC (minimum inhibitory concentration). The protocol: (§1) Fifty organic extracts were prepared from 25 whole broth of four microbial strains (MS1479, MS2379, MS2820, and MS2414), which were fermented in different media for the antimicrobial testing. Note each whole broth culture generated one n-butanol extract from cultural supernatant and one methanol extract from cell pellets.
(§2) The antimicrobial activities of the 50 organic extracts were studied against three fungal pathogens—Candida albicans, Aspergillus fumigatus, and Cryptococcus neoformans—and five bacterial strains-Methicillin-resistant Staphylococcus aureus (MIRSA), Escherichia coli, Pseudomonas aeruginosa, Klebsiella pneumoniae, and Vancomycin-resistant Enterococcus faecium (VRE) (FIG. 2). The test concentrations for all extracts were in the range of 8-200 μg/mL (Table 3).
(§3) The antimicrobial activities of identified fusaricidins were in an in vitro study against several clinically relevant microbes. […] For the in-vitro assays against bacteria, fusaricidins were tested against methicillin-resistant Staphylococcus aureus, vancomycin-resistant Enterococcus faecium, Escherichia coli, and Pseudomonas aeruginosa using four antibacterial drugs methicillin, vancomycin, cefotaxime, and meropenem as controls. […] Fusaricidins were also tested against fungal pathogens Cryptococcus neoformans, Candida albicans, and Aspergillus fumigatus and compared with two antifungal drugs, fluconazole and amphotericin B (Table 13). Moreover, the anti-parasitic activity was also tested against L. donovani and T. brucei (Table 14).

For the next series, the system named is Candida albicans. In words: In vitro antimicrobial activity against Candida albicans. The format is cell-based. As to conditions: for IC50: Candida albicans, test conc. 200-8 μg/mL (extracts), 100-4 or 10-0.4 μg/mL (drugs), read-out: C. albicans IC50; for C. albicans IC50: Table 5, extracts tested at 8-200 μg/mL. As to the method: as §1, §2, §3
For series [1], the system named is Methicillin-resistant Staphylococcus aureus (MRSA). In words: In vitro antimicrobial activity against MRSA. The format is cell-based. As to conditions: for MIC: read-out: MRSA MIC (minimum inhibitory concentration). The protocol: as §1, §2, §3
The next series has as its system Cryptococcus neoformans. In words: In vitro antimicrobial activity against Cryptococcus neoformans. It counts as cell-based. As to conditions: for IC50: Cryptococcus neoformans, test conc. 200-8 μg/mL (extracts), 100-4 or 10-0.4 μg/mL (drugs), read-out: C. neoformans IC50; for C. neoformans IC50: Table 5, extracts tested at 8-200 μg/mL. The protocol:
as §1, §2
The potent activities against the fungal pathogen C. neoformans and the gram-positive bacteria S. aureus, MRSA, and M. intracellulare were also shown in the crude extracts (FIG. 7).
as §3

A further series concerns Klebsiella pneumoniae. In words: In vitro antimicrobial activity against Klebsiella pneumoniae. It counts as cell-based. As to conditions: Klebsiella pneumoniae; test conc. 200-8 μg/mL (extracts), 100-4 or 10-0.4 μg/mL (drugs); read-out: K pneumoniae IC50. The protocol: as §1, §2
The next series concerns Pseudomonas aeruginosa. In words: In vitro antimicrobial activity against Pseudomonas aeruginosa. It counts as cell-based. As to conditions: for MIC: read-out: P. aeruginosa MIC (minimum inhibitory concentration). As to the method:
as §1, §2, §3

Series [2] deals with Vancomycin-resistant Enterococcus faecium (VRE). In words: In vitro antimicrobial activity against VRE. As to conditions: for MIC: read-out: VRE MIC (minimum inhibitory concentration); for VRE IC50: Table 5, extracts tested at 8-200 μg/mL. The format is cell-based. The protocol:
as §1, §2, §3

For a further series, the system named is Aspergillus fumigatus. In words: In vitro antimicrobial activity against Aspergillus fumigatus. As to conditions: for IC50: Aspergillus fumigatus, test conc. 200-8 μg/mL (extracts), 100-4 or 10-0.4 μg/mL (drugs), read-out: A. fumigatus IC50; for A. fumigatus IC50: Table 5, extracts tested at 8-200 μg/mL. The format is cell-based. As to the method: as §1, §2, §3

Series [3] is described as follows: Heat stability of fusaricidins, whole broth autoclaved. It counts as physicochemical. As to conditions: fermentation whole broth autoclaved at 121.5° C. for 30 minutes. The protocol:
In order to test the heat stability of fusaricidins, the fermentation whole broth was autoclaved at 121.5° C. for 30 minutes. Fusaricidin contents were analyzed before and after autoclave. Without being bound by a theory, fusaricidin A is heat stable because significant amounts of fusaricidin A were detected after the harsh heat treatment in most cases (FIG. 3B).

The mark [4] stands for this setting: ATCC2452, Table 13, Escherichia coli ATCC 2452, read-out: E. coli IC50 (50% growth inhibitory concentration).
The mark [5] stands for this setting: ATCC2452, Table 13, Escherichia coli ATCC 2452.
[6] abbreviates: Escherichia coli, test conc. 200-8 μg/mL (extracts), 100-4 or 10-0.4 μg/mL (drugs), read-out: E. coli IC50.
Setting [7] is: ATCC 1708 / MRSA, Table 13, Methicillin-resistant Staphylococcus aureus ATCC 1708, read-out: MRSA IC50 (50% growth inhibitory concentration).
Setting [8] is: ATCC 1708 / MRSA, Table 13, Methicillin-resistant Staphylococcus aureus ATCC 1708.
Where [9] appears, read: Staphylococcus aureus, MRSA, test conc. 200-8 μg/mL (extracts), 100-4 or 10-0.4 μg/mL (drugs), read-out: MRS IC50.
The mark [10] stands for this setting: ATCC2108, Table 13, Pseudomonas aeruginosa ATCC 2108, read-out: P. aeruginosa IC50 (50% growth inhibitory concentration).
[11] abbreviates: ATCC2108, Table 13, Pseudomonas aeruginosa ATCC 2108.
Where [12] appears, read: Pseudomonas aeruginosa, test conc. 200-8 μg/mL (extracts), 100-4 or 10-0.4 μg/mL (drugs), read-out: P. aeruginosa IC50.
Setting [13] is: ATCC 700221 / VRE, Table 13, Vancomycin-resistant Enterococcus faecium ATCC 700221, read-out: VRE IC50 (50% growth inhibitory concentration).
Where [14] appears, read: ATCC 700221 / VRE, Table 13, Vancomycin-resistant Enterococcus faecium ATCC 700221.
Where [15] appears, read: test conc. 200-8 μg/mL (extracts), 100-4 or 10-0.4 μg/mL (drugs), read-out: VRE IC50.

SMILES strings stand for the structures. ≈ marks a conversion by molar mass, not a printed value. Like-named read-outs stand apart in the source and are kept apart here. Positions of bridges follow the written chain, without caps; N, C: chain ends. Non-standard residues stand in square brackets, D forms with d. Residues, ends and D or L forms follow the SMILES beside them. ξ: configuration not given here. *: point of attachment. Pentadecanoyl(3ξ-OH,15-Gua) = N=C(N)NCCCCCCCCCCCCC(O)CC(=O)*; d(aThr) = C[C@@H](O)[C@@H](N)C(=O)O

These results are taken from US12274732B2, “Anti-pathogen composition and methods of use thereof” (Tenfold Technologies, LLC, priority 2017, dated 2025).

Regarding `CO/N=C(\C(=O)N[C@@H]1C(=O)N2C(C(=O)O)=C(COC(C)=O)CS[C@H]12)c1csc(N)n1` [Cefotaxime], the IC50 with Escherichia coli (setting [4]) is > 100 mg/L; in the series with Escherichia coli (setting [6]) it was 80.2 mg/L (≈ 176 µM); in the series with Candida albicans, > 100 mg/L; in series [1] (setting [7]) it was 15.6 mg/L (≈ 34.3 µM); in series [1] (setting [9]) it was 14.8 mg/L (≈ 32.5 µM); in the series on Cryptococcus neoformans, > 100 mg/L. Moreover, the IC50 in the series with Klebsiella pneumoniae is > 100 mg/L; with Pseudomonas aeruginosa (setting [10]) it was 5.3 mg/L (≈ 11.6 µM); in the series on Pseudomonas aeruginosa (setting [12]) it was 11.8 mg/L (≈ 26 µM); in [2] (setting [13]), > 100 mg/L; in series [2] (setting [15]) it was > 100 mg/L; with Aspergillus fumigatus, > 100 mg/L. In addition, the MIC with Escherichia coli (setting [5]) is > 100 mg/L; in series [1] (setting [8]) it was 25 mg/L (≈ 54.9 µM); in the series with Pseudomonas aeruginosa (setting [11]), 25 mg/L (≈ 54.9 µM); in [2] (setting [14]) it was > 100 mg/L. In the series with Candida albicans, the “C. albicans IC50” value was >100 mg/L. Moreover, in the series on Cryptococcus neoformans, the “C. neoformans IC50” value was >100 mg/L. In [2], the “VRE IC50” value is >100 mg/L. Moreover, the “A. fumigatus IC50” value in the series with Aspergillus fumigatus was >100 mg/L.
For `COc1cccc(OC)c1C(=O)N[C@@H]1C(=O)N2[C@@H]1SC(C)(C)[C@@H]2C(=O)O` [Methicillin], the IC50 is > 100 mg/L with Escherichia coli (setting [4]); > 100 mg/L with Escherichia coli (setting [6]); > 100 mg/L with Candida albicans; 12.1 mg/L (≈ 31.8 µM) in series [1] (setting [7]); 19 mg/L (≈ 49.9 µM) in series [1] (setting [9]); > 100 mg/L in the series with Cryptococcus neoformans. Besides, the IC50 in the series on Klebsiella pneumoniae was > 100 mg/L; in the series on Pseudomonas aeruginosa (setting [10]) it was 76 mg/L (≈ 200 µM); in the series with Pseudomonas aeruginosa (setting [12]), 95.4 mg/L (≈ 251 µM); in series [2] (setting [13]), > 100 mg/L; in series [2] (setting [15]), > 100 mg/L; in the series on Aspergillus fumigatus, > 100 mg/L. Moreover, the MIC with Escherichia coli (setting [5]) was > 100 mg/L; in series [1] (setting [8]), 50 mg/L (≈ 131 µM); with Pseudomonas aeruginosa (setting [11]) it was > 100 mg/L; in [2] (setting [14]), > 100 mg/L. Besides, the “C. albicans IC50” value in the series with Candida albicans was >100 mg/L. Also, the “C. neoformans IC50” value in the series on Cryptococcus neoformans was >100 mg/L. Also, the “VRE IC50” value in series [2] was >100 mg/L. Moreover, in the series on Aspergillus fumigatus, the “A. fumigatus IC50” value is >100 mg/L.
`CC(C)[C@@H]1NC(=O)[C@@H](C(C)C)NC(=O)[C@@H](NC(=O)CC(O)CCCCCCCCCCCCNC(=N)N)[C@@H](C)OC(=O)[C@@H](C)NC(=O)[C@@H](CC(N)=O)NC(=O)[C@@H]([C@@H](C)O)NC1=O` (stereo partly shown) [Fusaricidin A] ({Pentadecanoyl(3ξ-OH,15-Gua)}-T[dV]V[d(aThr)][dN][dA]; ester 1-C): the “activity against MRSA (in words)” value in series [1] is recorded as “strong activity”. In addition, in series [2], the “activity against VRE (in words)” value is “strong activity”. Further, in [3], the heat stability result is listed as “heat stable”.
